# Assay results as given in paper PMC5418711, “Safety and efficacy of the choline analogue SAR97276 for malaria treatment: results of two phase 2, open-label, multicenter trials in African patients” (Malaria Journal, 2017).
# System: P. falciparum
# Assay: Study 1: phase 2 trial, efficacy of SAR97276A in uncomplicated falciparum malaria patients
# Format: in vivo, Plasmodium falciparum
# Details: for Median time to 50% parasite reduction (95% CI) / Median time to 90% parasite reduction (95% CI): Kaplan–Meier; for Recurrences up to day 28: patients judged successfully treated after 72 h
# Procedure: The study was designed to enroll up to 210 malaria patients in sequential cohorts. A staggered trial design was planned to assess a single, IM dose of SAR97276A (0.18 mg/kg, or 12.5 mg fixed dose) first in adults and then progressively in children (age 7–17 years) and young children (age 0.5–7 years). Age de-escalation of the study was only allowed if threshold response rate in the respective study cohort was met (26 patients out of 30 patients need to have met the 4 criteria of the primary endpoint at 72 h plus adequate safety results). If efficacy criteria were not met but safety was acceptable, SAR97276A would be tested as a 3-day IM regimen (3 injections, 24 h apart) in an additionally recruited 30 patients of the respective cohort. Subsequently, in case of acceptable safety and efficacy, all following cohorts were treated with the 3-day IM regimen. In parallel, SAR97276A was planned to be tested as a single, IV dose (0.14 mg/kg or 10 mg fixed dose) first in adults and then in young children with severe malaria, if threshold response rate was met. An overview of this adaptive study design can be seen in Fig. 1 and Table 1.
# The following age cohorts were planned to be enrolled: (i) Adults aged 18–65 years, body weight ≥50 kg, and uncomplicated malaria with P. falciparum ≥100 parasites/µL; (ii) children aged 7–17 years, and uncomplicated malaria with P. falciparum ≥1000 parasites/µL, and (iii) young children aged of 0.5–7 years with uncomplicated malaria (P. falciparum count ≥1000 parasites/µL) and as an additional group with symptoms or signs of severe malaria according to WHO [9]. Adults received SAR97276A either by IM (study group 1A and 1B) or by IV route (study group 1C). Children received SAR97276A only by IM injection (study group 1D). Young children (0.5–7 years) both with uncomplicated and with severe malaria were not included as Study 1 was stopped before reaching these cohorts due to lack of efficacy.
# Study duration and follow-up In both studies, study duration was 28 days for each patient including a screening period of up to 12 h before inclusion into the study. Participants were hospitalized for at least 3 days (72 h) after the start of treatment. Follow-up visits were done on day 6, 8, 14 ± 2, 21 ± 2, 28 ± 2 (Study 1); and day 7, 14 ± 2, 21 ± 2, 28 ± 2 (Study 2). Patient examination Fever measurements and thick blood smears were done every 6 h until 72 h and at each follow-up visit. Parasitemia was determined microscopically by Giemsa stained thick blood smear by two trained microscopists blinded to each other. Safety assessment Safety analysis was based on AEs including vision assessment recorded from baseline until day 28 (in binocular conditions, for near and distant visual acuity, using standard optotypes appropriate for patient’s age and reading ability. Tests with standard corrective glasses (+3 and −3 diopters) were performed in case of visual adverse events, to assess whether vision improved or worsened with corrective glasses). Laboratory tests including hematology, biochemistry and urine analysis were done at baseline, day 2, 4, 28 (Study 1), or baseline, day 2, 4, 14, 28 (Study 2); vital signs were recorded at baseline, every 6 h until 72 h and on each follow up visit. An electrocardiogram (ECG) was done at baseline, day 4, 28 (Study 1), or baseline, 48 h, 72 h, day 28 (Study 2). For Study 2 respiratory parameters (respiratory rate, peak flow, efficiency of cough) were also checked at baseline and 30 min after first dose on day 1, 2 and 3.
# Definition of fever clearance Fever was defined as temperature ≥38 °C.
# Definition of general condition improvement The symptoms were scored at baseline and every 6 h up to day 4 (72 h), including headache, fatigue, nausea-vomiting and abdominal pain. The symptoms were scored according to the following scale: absent -0-, mild -1-, moderate -2- and severe -3-. The total clinical score ranged between 0 and 12. […]
# [1] = Group 1A: 1 day IM 0.18 mg/kg, adults, N=34
# [2] = Group 1A: 1 day IM 0.18 mg/kg, adults, PCR data available 12/14
# [3] = Group 1B: 3 days IM 0.18 mg/kg, adults, N=30
# [4] = Group 1B: 3 days IM 0.18 mg/kg, adults, PCR data available 11/13
# [5] = Group 1C: 1 day IV 0.14 mg/kg, adults, N=30
# [6] = Group 1C: 1 day IV 0.14 mg/kg, adults, PCR data available 10/15
# [7] = Group 1D: 3 days IM 0.18 mg/kg, children
# [8] = Group 1D: 3 days IM 0.18 mg/kg, children, N=19
# [9] = Group 1D: 3 days IM 0.18 mg/kg, children, PCR data available 8/8
smiles,measurement,setting,value
Cc1c(CCO)sc[n+]1CCCCCCCCCCCC[n+]1csc(CCO)c1C [SAR97276A],General condition improvement at 48 h: Failure,[1],2 (6%)
same,General condition improvement at 48 h: Success,[1],32 (94%)
same,Parasite reduction (at least 90% at 72 h): Failure,[1],11 (32%)
same,Parasite reduction (at least 90% at 72 h): Success,[1],23 (68%)
same,Rescue therapy criterion (no need for rescue therapy): Failure,[1],5 (15%)
same,Rescue therapy criterion (no need for rescue therapy): Success,[1],29 (85%)
same,Median time to 50% parasite reduction (95% CI),[1],18.0 (12.0–24.0) h
same,Median time to 90% parasite reduction (95% CI),[1],30.0 (18.0–30.0) h
same,New infection (PCR genotyped recurrences up to day 28),[2],9 (75%)
same,Recrudescences (PCR genotyped recurrences up to day 28),[2],3 (25%)
same,Recurrences up to day 28,"Group 1A: 1 day IM 0.18 mg/kg, adults",14
same,General condition improvement at 48 h: Failure,[3],2 (7%)
same,General condition improvement at 48 h: Success,[3],28 (93%)
same,Parasite reduction (at least 90% at 72 h): Failure,[3],2 (7%)
same,Parasite reduction (at least 90% at 72 h): Success,[3],28 (93%)
same,Rescue therapy criterion (no need for rescue therapy): Failure,[3],1 (3%)
same,Rescue therapy criterion (no need for rescue therapy): Success,[3],29 (97%)
same,Median time to 50% parasite reduction (95% CI),[3],18.0 (6.0–24.0) h
same,Median time to 90% parasite reduction (95% CI),[3],24.0 (12.0–36.0) h
same,New infection (PCR genotyped recurrences up to day 28),[4],6 (54.5%)
same,Recrudescences (PCR genotyped recurrences up to day 28),[4],5 (45.5%)
same,Recurrences up to day 28,"Group 1B: 3 days IM 0.18 mg/kg, adults",13
same,General condition improvement at 48 h: Failure,[5],1 (3%)
same,General condition improvement at 48 h: Success,[5],29 (97%)
same,Parasite reduction (at least 90% at 72 h): Failure,[5],7 (23%)
same,Parasite reduction (at least 90% at 72 h): Success,[5],23 (77%)
same,Rescue therapy criterion (no need for rescue therapy): Failure,[5],1 (3%)
same,Rescue therapy criterion (no need for rescue therapy): Success,[5],29 (97%)
same,Median time to 50% parasite reduction (95% CI),[5],9.0 (6.0–18.0) h
same,Median time to 90% parasite reduction (95% CI),[5],30.0 (18.0–30.0) h
same,New infection (PCR genotyped recurrences up to day 28),[6],6 (60%)
same,Recrudescences (PCR genotyped recurrences up to day 28),[6],4 (40%)
same,Recurrences up to day 28,"Group 1C: 1 day IV 0.14 mg/kg, adults",15
same,Recrudescence of the same parasite until day 14 in successfully cured children (assessed after 72 h),[7],3/13
same,Enrolled patients failed to meet the predetermined efficacy response criteria,"Group 1D: 3 days IM 0.18 mg/kg, children's cohort",5/19
same,General condition improvement at 48 h: Failure,[8],1 (5%)
same,General condition improvement at 48 h: Not evaluable,[8],1 (5%)
same,General condition improvement at 48 h: Success,[8],17 (90%)
same,Parasite reduction (at least 90% at 72 h): Failure,[8],5 (26%)
same,Parasite reduction (at least 90% at 72 h): Not evaluable,[8],0
same,Parasite reduction (at least 90% at 72 h): Success,[8],14 (74%)
same,Rescue therapy criterion (no need for rescue therapy): Failure,[8],4 (21%)
same,Rescue therapy criterion (no need for rescue therapy): Not evaluable,[8],0
same,Rescue therapy criterion (no need for rescue therapy): Success,[8],15 (79%)
same,Median time to 50% parasite reduction (95% CI),[8],24.0 (12.0–24.0) h
same,Median time to 90% parasite reduction (95% CI),[8],24.0 (24.0–30.0) h
same,New infection (PCR genotyped recurrences up to day 28),[9],0
same,Recrudescences (PCR genotyped recurrences up to day 28),[9],8 (100%)
same,Recurrences up to day 28,[7],8
same,"Recurrences in the successfully treated patients until day 28, total","Study 1, all groups",50
same,"New infections among genotyped recurrences, total","Study 1, all groups, 41 recurrences genotyped by PCR",21
